Results reported in US11634425B2, “Pharmaceutical compounds” (priority 2019, dated 2023).
Read-outs that look alike come from different tables or passages of the source.

Experiments:
[1] = in vitro; assay type: in vitro ADME; settings: microsomes, pH 7.4, 1 μM compound, 0.5 mg/mL protein, read-out: Liver Microsomal Stability t1/2
Protocol: Compounds were subjected to the following assays to investigate liver microsomal stability and hepatocyte stability.
Microsomal Incubation: Experimental Procedure
Pooled liver microsomes were purchased from a reputable commercial supplier and stored at −80° C. prior to use. Microsomes (final protein concentration 0.5 mg/mL), 0.1 M phosphate buffer pH 7.4 and test compound (final substrate concentration 1 μM; final DMSO concentration 0.25%) were pre-incubated at 37° C. prior to the addition of NADPH (final concentration 1 mM) to initiate the reaction. The final incubation volume was 50 μL. A control incubation was included for each compound tested where 0.1 M phosphate buffer pH 7.4 was added instead of NADPH (minus NADPH). Two control compounds were included with each species. All incubations were performed singularly for each test compound. Each compound was incubated for 0, 5, 15, 30 and 45 min. The control (minus NADPH) was incubated for 45 min only. The reactions were stopped by transferring incubate into acetonitrile at the appropriate time points, in a 1:3 ratio. The termination plates are centrifuged at 3,000 rpm for 20 min at 4° C. to precipitate the protein. Following protein precipitation, the sample supernatants were combined in cassettes of up to 4 compounds, internal standard added, and samples analysed by LC-MS/MS. From a plot of ln peak area ratio (compound peak area/internal standard peak area) against time, the gradient of the line was determined. Subsequently, half-life (t1/2) and intrinsic clearance (CLint) were calculated.

[2] = system: RSV A2; assay: RSV plaque reduction assay; assay type: cell-based, respiratory syncytial virus (RSV); settings: human respiratory syncytial virus, HepG2, Hep-G2 cells, mean of at least two experiments
Method in brief: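 RSV A2 at 100 PFU/well was premixed with eight compound dilutions and added to confluent Hep-G2 monolayers for 2 h at 37 °C. Cells were then kept 2 days under a DMEM/2% FBS/0.8% CMC overlay containing compound. Immunostained plaques were counted relative to virus controls, and EC50 came from 4-parameter fits, averaged over at least two experiments.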

[3] = Cell cytotoxicity (CC50); assay type: cell-based; settings: human; mean of at least two experiments
Method in brief: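 Values are means of ≥2 independent runs, rounded to whole units, from 4-parameter variable-slope curve fits. Toxicity measured in Hep-G2 cells run alongside RSV plaque-reduction assays.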

Cc1ccc2nc(-c3ccncc3F)c(C(=O)N[C@H]3N=C(c4ccccc4)c4cccc(F)c4NC3=O)n2n1 [Example 100, N-[(3S)-9-fluoro-2-oxo-5-phenyl-1,3-dihydro-1,4-benzodiazepin-3-yl]-2-(3-fluoropyridin-4-yl)-6-methylimidazo[1,2-b]pyridazine-3-carboxamide]
half-life at 1 μM ([1]; dog): 1.37 h | half-life at 1 μM ([1]; human): 15.1 h | half-life at 1 μM ([1]; rat): 0.457 h | EC50 [2]: 47 nM | CC50 [3]: > 25000 nM

CN1CC(Oc2ccc3nc(-c4ccccc4)c(C(=O)N[C@H]4N=C(c5ccccc5)c5cccc(F)c5NC4=O)n3n2)C1 [Example 109, N-[(3S)-9-Fluoro-2-oxo-5-phenyl-1,3-dihydro-1,4-benzodiazepin-3-yl]-6-(1-methylazetidin-3-yl)oxy-2-phenylimidazo[1,2-b]pyridazine-3-carboxamide]
half-life at 1 μM ([1]; dog): 4.33 h | half-life at 1 μM ([1]; human): 1.3 h | half-life at 1 μM ([1]; rat): 1.15 h | EC50 [2]: 96 nM | CC50 [3]: > 16800 nM

O=C(N[C@H]1N=C(c2ccccc2)c2ccccc2NC1=O)c1c(-c2cncc(Cl)c2)nn2cccnc12 [Example 27, 2-(5-Chloropyridin-3-yl)-N-[(3S)-2-oxo-5-phenyl-1,3-dihydro-1,4-benzodiazepin-3-yl]pyrazolo[1,5-a]pyrimidine-3-carboxamide]
half-life at 1 μM ([1]; dog): 0.997 h | half-life at 1 μM ([1]; human): 2.03 h | half-life at 1 μM ([1]; rat): 8.75 h | EC50 [2]: 61 nM | CC50 [3]: > 25000 nM

O=C(N[C@H]1N=C(c2ccccc2)c2cccc(F)c2NC1=O)c1c(-c2cccc(F)c2F)nn2cccnc12 [Example 42, 2-(2,3-Difluorophenyl)-N-[(3S)-9-fluoro-2-oxo-5-phenyl-1,3-dihydro-1,4-benzodiazepin-3-yl]pyrazolo[1,5-a]pyrimidine-3-carboxamide]
half-life at 1 μM ([1]; dog): 12.2 h | half-life at 1 μM ([1]; human): > 2.33 h | half-life at 1 μM ([1]; rat): 2.83 h | EC50 [2]: 41 nM | CC50 [3]: > 14000 nM

O=C(N[C@H]1N=C(c2ccccc2)c2cccc(F)c2NC1=O)c1c(-c2ccc(F)cc2F)nc2cccnn12 [Example 89, 2-(2,4-Difluorophenyl)-N-[(3S)-9-fluoro-2-oxo-5-phenyl-1,3-dihydro-1,4-benzodiazepin-3-yl]imidazo[1,2-b]pyridazine-3-carboxamide]
half-life at 1 μM ([1]; dog): 18 h | half-life at 1 μM ([1]; human): 12.3 h | half-life at 1 μM ([1]; rat): 3.1 h | EC50 [2]: 19 nM | CC50 [3]: > 25000 nM

Cc1cnc(F)c(-c2nn3cccnc3c2C(=O)N[C@H]2N=C(c3ccccc3)c3cccc(F)c3NC2=O)c1 [Example 32, 2-(2-Fluoro-5-methylpyridin-3-yl)-N-[(3S)-9-fluoro-2-oxo-5-phenyl-1,3-dihydro-1,4-benzodiazepin-3-yl]pyrazolo[1,5-a]pyrimidine-3-carboxamide]
half-life at 1 μM ([1]; dog): 3.78 h | half-life at 1 μM ([1]; human): 5.58 h | half-life at 1 μM ([1]; rat): 1.28 h | EC50 [2]: 86 nM | CC50 [3]: > 25000 nM

CC(C)Nc1ccc(-c2nn3cccnc3c2C(=O)N[C@H]2N=C(c3ccccc3)c3cccc(F)c3NC2=O)c(F)n1 [Example 70, N-[(3S)-9-Fluoro-2-oxo-5-phenyl-1,3-dihydro-1,4-benzodiazepin-3-yl]-2-[2-fluoro-6-(propan-2-ylamino)pyridin-3-yl]pyrazolo[1,5-a]pyrimidine-3-carboxamide]
half-life at 1 μM ([1]; dog): 0.525 h | half-life at 1 μM ([1]; human): 3.45 h | half-life at 1 μM ([1]; rat): 1.65 h | EC50 [2]: 23 nM | CC50 [3]: > 25000 nM

Cc1ccnc2c(C(=O)N[C@H]3N=C(c4ccccc4)c4ccccc4NC3=O)c(-c3ccccc3F)nn12 [Example 37, 2-(2-Fluorophenyl)-7-methyl-N-[(3S)-2-oxo-5-phenyl-1,3-dihydro-1,4-benzodiazepin-3-yl]pyrazolo[1,5-a]pyrimidine-3-carboxamide]
half-life at 1 μM ([1]; dog): 1.95 h | half-life at 1 μM ([1]; human): > 2.33 h | half-life at 1 μM ([1]; rat): 0.842 h | EC50 [2]: 39 nM | CC50 [3]: > 25000 nM

CN1CC(Oc2ccc3nc(-c4ccccc4F)c(C(=O)N[C@H]4N=C(c5ccccc5)c5cccc(F)c5NC4=O)n3n2)C1 [Example 108, N-[(3S)-9-Fluoro-2-oxo-5-phenyl-1,3-dihydro-1,4-benzodiazepin-3-yl]-2-(2-fluorophenyl)-6-(1-methylazetidin-3-yl)oxyimidazo[1,2-b]pyridazine-3-carboxamide]
half-life at 1 μM ([1]; dog): 2.88 h | half-life at 1 μM ([1]; human): 1.3 h | half-life at 1 μM ([1]; rat): 1.14 h | EC50 [2]: 84 nM | CC50 [3]: 21900 nM

CNc1ccc(-c2nn3cccnc3c2C(=O)N[C@H]2N=C(c3ccccc3)c3ccccc3NC2=O)c(F)c1 [Example 16, 2-[2-Fluoro-4-(methylamino)phenyl]-N-[(3S)-2-oxo-5-phenyl-1,3-dihydro-1,4-benzodiazepin-3-yl]pyrazolo[1,5-a]pyrimidine-3-carboxamide]
half-life at 1 μM ([1]; dog): 0.657 h | half-life at 1 μM ([1]; human): 1.5 h | half-life at 1 μM ([1]; rat): 0.652 h | EC50 [2]: 18 nM | CC50 [3]: > 25000 nM

Cc1ccc(-c2nn3cccnc3c2C(=O)N[C@H]2N=C(c3ccccc3)c3ccccc3NC2=O)c(F)n1 [Example 85, 2-(2-Fluoro-6-methylpyridin-3-yl)-N-[(3S)-2-oxo-5-phenyl-1,3-dihydro-1,4-benzodiazepin-3-yl]pyrazolo[1,5-a]pyrimidine-3-carboxamide]
half-life at 1 μM ([1]; dog): 1.75 h | half-life at 1 μM ([1]; human): > 2.33 h | half-life at 1 μM ([1]; rat): 3.3 h | EC50 [2]: 57 nM | CC50 [3]: > 25000 nM

Cc1ccc2nc(-c3ccc(F)cc3F)c(C(=O)N[C@H]3N=C(c4ccccc4)c4cccc(F)c4NC3=O)n2n1 [Example 91, 2-(2,4-Difluorophenyl)-N-[(3S)-9-fluoro-2-oxo-5-phenyl-1,3-dihydro-1,4-benzodiazepin-3-yl]-6-methylimidazo[1,2-b]pyridazine-3-carboxamide]
half-life at 1 μM ([1]; dog): 4.47 h | half-life at 1 μM ([1]; human): 1.68 h | half-life at 1 μM ([1]; rat): 0.61 h | EC50 [2]: 17 nM | CC50 [3]: > 25000 nM

O=C(N[C@H]1N=C(c2ccccc2)c2cccc(F)c2NC1=O)c1c(-c2c(F)cccc2F)nn2cccnc12 [Example 44, 2-(2,6-Difluorophenyl)-N-[(3S)-9-fluoro-2-oxo-5-phenyl-1,3-dihydro-1,4-benzodiazepin-3-yl]pyrazolo[1,5-a]pyrimidine-3-carboxamide]
half-life at 1 μM ([1]; dog): 12.5 h | half-life at 1 μM ([1]; human): 9.07 h | half-life at 1 μM ([1]; rat): 3.85 h | EC50 [2]: 87 nM | CC50 [3]: > 25000 nM

Cn1ncc2cc(-c3nn4cccnc4c3C(=O)N[C@H]3N=C(c4ccccc4)c4cccc(F)c4NC3=O)ccc21 [Example 63, N-[(3S)-9-fluoro-2-oxo-5-phenyl-1,3-dihydro-1,4-benzodiazepin-3-yl]-2-(1-methylindazol-5-yl)pyrazolo[1,5-a]pyrimidine-3-carboxamide]
half-life at 1 μM ([1]; dog): 2.53 h | half-life at 1 μM ([1]; human): 1.88 h | half-life at 1 μM ([1]; rat): 3.78 h | EC50 [2]: 66 nM | CC50 [3]: > 25000 nM

[2H]C([2H])([2H])Oc1ccc2nc(-c3ccccc3)c(C(=O)N[C@H]3N=C(c4ccccc4)c4cccc(F)c4NC3=O)n2n1 [Example 114, N-[(3S)-9-fluoro-2-oxo-5-phenyl-1,3-dihydro-1,4-benzodiazepin-3-yl]-2-phenyl-6-(trideuteriomethoxy)imidazo[1,2-b]pyridazine-3-carboxamide]
half-life at 1 μM ([1]; dog): 5.5 h | half-life at 1 μM ([1]; human): 4.1 h | half-life at 1 μM ([1]; rat): 2.03 h | EC50 [2]: 39 nM | CC50 [3]: > 25000 nM

O=C(N[C@H]1N=C(c2ccccc2)c2cccc(F)c2NC1=O)c1c(-c2ccc(N3CCOCC3)nc2)nn2cccnc12 [Example 72, N-[(3S)-9-fluoro-2-oxo-5-phenyl-1,3-dihydro-1,4-benzodiazepin-3-yl]-2-(6-morpholin-4-ylpyridin-3-yl)pyrazolo[1,5-a]pyrimidine-3-carboxamide]
half-life at 1 μM ([1]; dog): 0.857 h | half-life at 1 μM ([1]; human): 3 h | half-life at 1 μM ([1]; rat): 2.63 h | EC50 [2]: 118 nM | CC50 [3]: > 25000 nM

O=C(N[C@H]1N=C(c2ccccc2)c2ccccc2NC1=O)c1c(-c2ccccc2)nc2cccnn12 [Example 87, N-[(3S)-2-oxo-5-phenyl-1,3-dihydro-1,4-benzodiazepin-3-yl]-2-phenylimidazo[1,2-b]pyridazine-3-carboxamide]
half-life at 1 μM ([1]; dog): 1.12 h | half-life at 1 μM ([1]; human): 68.8 h | half-life at 1 μM ([1]; rat): 1.43 h | EC50 [2]: 53 nM | CC50 [3]: > 25000 nM

O=C(N[C@H]1N=C(c2ccccc2)c2cccc(F)c2NC1=O)c1c(-c2cc(F)ccc2F)nn2cccnc12 [Example 7, 2-(2,5-Difluorophenyl)-N-[(3S)-9-fluoro-2-oxo-5-phenyl-1,3-dihydro-1,4-benzodiazepin-3-yl]pyrazolo[1,5-a]pyrimidine-3-carboxamide]
half-life at 1 μM ([1]; dog): 2.5 h | half-life at 1 μM ([1]; human): 10.7 h | half-life at 1 μM ([1]; rat): 2.08 h | EC50 [2]: 107 nM | CC50 [3]: > 25000 nM
